# Values quoted from earlier work as cited in patent US20160120870A1, “THE PROCESS FOR THE PREPARATION OF A PHARMACEUTICAL COMPOSITION COMPRISING RIVAROXABAN” (SANDOZ AG, priority 2013, published 2016).
# Details: background prior art, drug substance
compound,measurement,value
"O=C(NC[C@H]1CN(c2ccc(N3CCOCC3=O)cc2)C(=O)O1)c1ccc(Cl)s1 [Rivaroxaban, (S)-5-chloro-N-{[2-oxo-3-[4-(3-oxomorpholin-4-yl)phenyl]oxazolidin-5-yl]methyl}thiophene-2-carboxamide]",water solubility,relatively poor
